{"source": "patent US7148210B2", "about": "“Method of treating bone metastasis” (Trustees of Dartmouth College, priority 2002, dated 2006)", "key": {"[1]": {"assay": "ATP i.v. infusion dose escalation to maximally tolerated dose (present disclosure)", "assay_type": "in vivo, human", "conditions": "duration 8 hours", "source_text": "(§1) This regime was maintained until the maximally tolerated dose (MTD) was reached.\n(§2) Patients were consenting adult patients with histologically/cytologically confirmed advanced hormone-refractory prostate cancer not curable by conventional therapies that fulfilled the standard phase 1 liver, renal and Karnofsky performance eligibility requirements. The patients also had to meet one of the two following requirements. A positive bone scan and/or imaging study for bone metastasis with accompanying bone pain had to be present with rising PSA values, identified in three consecutive PSA observations, following definitive surgery and/or radiation therapy and anti-androgen hormonal therapy. PSA levels (>10 ng/ml) and a positive bone scan and bone pain at time of initial diagnosis.\nAverage patient age was between 50 and 85 years of age. Patients were excluded if they met the standard phase 1 respiratory and cardiac exclusion criteria.\nATP infusion therapy was as described above."}, "[2]": {"conditions": "cited from earlier work"}, "HRPA cells": {"system": "HRPA cells", "conditions": "preclinical observations, Janssens and Boeynaems (2001); Fang et al. (1992); cited from earlier work"}, "bone metastases": {"system": "bone metastases", "assay": "Clinical outcome in patients (bone pain, energy, bone scan)", "assay_type": "in vivo, human", "conditions": "Patient 1", "source_text": "as §2"}, "[3]": {"system": "hormone-refractory prostate adenocarcinoma (HRPA)", "assay": "Blood PSA response in hormone-refractory prostate cancer patients with bone metastasis", "assay_type": "in vivo, human", "protocol": "Treatment of hormone-refractory prostate adenocarcinoma (HRPA) patients presents a complex combination of tumor and pain management. […] HRPA outcomes and PSA measurements were determined pre- and post-treatment within 25–45 days after Sm-153 administration.\n[formula] PSA decreases of greater than 50% from baseline are associated with improved survivals in prostate cancer patients [Zyskowski, et al. (2001) Australas Radiol. 45:39; Kelly, et al. (1993) J. Clin. Oncol. 11:607).\nThe change in PSA was expressed as a ratio rather than a strict difference due to assumed relative changes. Furthermore, assumed multiplicative error provided that the variation of PSA levels increased with an increase in PSA levels. The combination of these two assumptions provided that the PSA responses be compared on the log scale. Furthermore, it is known that the log scale stabilizes the variance (Rosner, In: Fundamentals of Bio-statistics, 5th edition, Pacific Grove: Duxbury) and it has been observed that the variation in PSA among patients with prostate cancer is higher than in healthy (disease-free) controls.\nThis regime was maintained until the maximally tolerated dose (MTD) was reached. […]"}, "[4]": {"assay": "Monitoring of patients for adverse effects / tolerability", "assay_type": "in vivo, human", "source_text": "as §1"}}, "note": "Like-named read-outs stand apart in the source and are kept apart here. Marks after values point to notes of the source that are not given here."}
{"compound": "Nc1ncnc2c1ncn2[C@@H]1O[C@H](COP(=O)(O)OP(=O)(O)OP(=O)(O)O)[C@@H](O)[C@H]1O", "note": "[ATP, Adenosine triphosphate]", "values": [{"measurement": "MTD", "setting": "[1]; Study 2, present disclosure", "value": 75, "unit": "µg/kg/min"}, {"measurement": "MTD", "setting": "[1]; Study 3, present disclosure", "value": 100, "unit": "µg/kg/min"}, {"measurement": "MTD", "setting": "[2]; Study 1, Gaba (1990), incremental i.v. dose levels, each infusion 20 min.", "value": "125* μg/kg/min"}, {"measurement": "MTD", "setting": "[2]; Study 4, Haskell et al. (1998), duration 96 hours", "value": 50, "unit": "µg/kg/min"}, {"measurement": "MTD", "setting": "[2]; Study 5, Agteresch et al. (2000), infused over 30 hours, start 20 μg/kg/min, increments of 10 every 30 minutes", "value": "65 to 75", "unit": "µg/kg/min"}, {"measurement": "MTD", "setting": "[2]; Study 6, Haskell et al. (1996), duration 96 hours", "value": 75, "unit": "µg/kg/min"}, {"measurement": "effect on HRPA cells in vitro", "setting": "HRPA cells", "value": "inhibits"}, {"measurement": "energy levels, exercise and activity", "setting": "bone metastases; eighth week, 100 μg/kg/min × 8 hours", "value": "improved energy levels at home and improved exercise and activity"}, {"measurement": "bone pain", "setting": "bone metastases; end of the eight weeks of ATP therapy", "value": "continued to have bone pain"}, {"measurement": "rate of PSA level increase during ATP treatments", "setting": "[3]; Patient 1, eight weekly i.v. ATP infusions, no Sm-153, PSA at start 2732 ng/ml", "value": "stabilized"}, {"measurement": "PSA levels during ATP treatment", "setting": "[3]; three advanced prostate cancer patients, i.v. infused ATP", "value": "stabilized"}, {"measurement": "tolerability", "setting": "[4]; 8-hour infusion once weekly at 50 up to 100 μg/kg/minute", "value": "well tolerated by most patients"}, {"measurement": "hematocrit NADIR", "setting": "[4]; Patient 1, 33% at start of trial, transfusion given at nadir", "value": 25, "unit": "%"}, {"measurement": "side effects of ATP infusion", "setting": "[4]; Patient 1, eight weekly i.v. infusions", "value": "minor side effects"}]}
